The text below walks through data of PMC8997848, “How Cargo Identity Alters the Uptake of Cell-Penetrating Peptide (CPP)/Cargo Complexes: A Study on the Effect of Net Cargo Charge and Length” (Cells, 2022).

Data set [1] has as its system HeLa cells. The note with it: cited from earlier work. The source says:
In addition to improving the permeability and stability of the CPPs themselves, there is significant interest in utilizing known CPPs to deliver bioactive cargoes, such as nanoparticles, therapeutics, or biosensors, to cells. CPPs have found great success of late as delivery vehicles for peptide-based therapeutics, such as PROTACs (proteolysis targeting chimeras), which facilitate the degradation of “undruggable” proteins by selectively ubiquitinating the target protein for proteasome-mediated degradation. […] With the majority of well characterized CPPs being unstructured, and considering the differences in uptake levels, cytotoxicity, and intracellular stability that has been observed when comparing unstructured and structured CPPs, it was important to compare the effects of net cargo charge and length on both unstructured (nona-arginine, R1) and structured (RWRWR, H1) CPPs. To examine the ...

For data set [2], the system named is HeLa cells. Nature of the data set: Live-cell fluorescent microscopy with line scans of intracellular peptide distribution. It is filed as cell-based. The note with it: for intracellular distribution of fluorescence / cellular uptake seen by fluorescence microscopy: 10 μM peptide, 60 min, 37 °C; for intracellular distribution of fluorescence: images and line scans across individual cells (Figures 3, 4, S8); for cellular uptake seen by fluorescence microscopy: FITC filter (Figure 3). On the procedure:
One day prior to the experiment, HeLa cells were seeded in 8-chambered Falcon Culture Slides (Corning) at a density of 3 × 10^4 cells/mL. On the day of the experiment, cells were washed once with ECB before incubation with 10 μM peptide solution (500 μL/well) for 1 h at 37 °C. Following incubation, cells were washed twice with ECB then incubated with 8 μM Hoechst 3342 nuclei acid stain (ThermoFisher Scientific, Carlsbad, CA, USA) for 20 min at room temperature. Cellular fluorescence was visualized using a Leica DMi8 inverted microscope outfitted with a 40× objective (Leica N PLAN L, 0.55× correction). Images were acquired using the digital CMOS camera C11440 (Hamamatsu Photonics K.K., Japan) with a fixed exposure time of 500 ms for the FITC filter, 150 ms for the DAPI filter, and 20 ms for brightfield. The following excitation/emission filters (Chroma Tech. Corp, Bellows Falls, VT, USA) were used to image the device: fluorescein isothiocyanate-FITC (λex 440–520 nm and λem 497–557 nm) for capturing the signal from FAM and DAPI (λex 335–385 nm and λem 405–465 nm) for capturing the signal from the Hoescht stain. Image acquisition was controlled using the Leica Application Suite software (LAS X, version 3.7.4.23463), where all images were recorded using the same parameters. The imaging was followed by quantitative analysis, where a manual line scan region of interest (ROI) was drawn across the center of the cells to quantify their fluorescent signals. Random ROIs were also drawn in free space not containing cells to measure background noise for each image. The fluorescent values were normalized by subtracting the noise from the measured signal.

Data set [3] deals with HeLa cells. Nature of the data set: Quantification of CPP and CPP/cargo uptake by fluorometry of FAM signal in cell lysate. In kind it is cell-based. The conditions noted are these: for time dependence of uptake (single factor ANOVA): 10 µM peptide, 10, 20, 40, 60, 100, 120 min, triplicate (Tables S1, S6); for time-dependent analysis of peptide uptake (in words): 10-120 min, triplicate (Figures S5, S7); for uptake of CPP/cargo complex compared to the H1 CPP alone (in words) / effect of net cargo length and arginine position on cellular uptake (one-way ANOVA): 10 µM; for uptake of CPP/cargo complex compared to the H1 CPP alone (in words): uptake normalized against H1, triplicate (Figure 1A); for effect of net cargo length and arginine position on cellular uptake (one-way ANOVA): 1 h, cargoes of +2 charge, 4 or 8 residues, triplicate (Figure 1B, Table S3). The method, then:
The quantification of peptide uptake was performed using a protocol previously utilized by Safa et al. and Vaithiyanathan et al.. Three days prior to the experiment, HeLa cells were seeded at a density of 1 × 10^4 cells/mL in 12 well plates. Prior to experiments, peptides were reconstituted in sodium phosphate buffer (2.26 mM NaH2PO4·H2O and 8.43 mM Na2HPO4·7H2O) and the peptide concentration was determined using a NanoDrop at the wavelength of 492 nm using the UV-vis function. On the day of the experiment, peptides were diluted to the desired final concentration with extracellular buffer, ECB (5.036 mM HEPES pH 7.4, 136.89 mM NaCl, 2.68 mM KCl, 2.066 mM MgCl2·6H2O, 1.8 mM, CaCl2·2H2O, and 5.55 mM glucose). Cells were washed once with PBS followed by peptide incubation (500 μL/well) at 37 °C. Plates were wrapped in aluminum foil during incubation to avoid deactivating the FAM tag on the peptide. Following the incubation, the peptide solutions were removed, and cells were washed twice with ECB. Cells were then trypsinized (250 μL/well) for 10 min at room temperature. The cells were resuspended in ECB (1 mL/well) and transferred to microcentrifuge tubes. The samples were centrifuged at 1800 rcf for 2.5 min. The supernatant was removed, and the isolated cells were lysed with 0.1 M NaOH (250 μL/tube). Samples were centrifuged again at 14,000 rcf for 5 min to remove any remaining protein bound to the membranes before transferring 150 μL of clarified lysate to a 96 well plate. Fluorometry (Perkin Elmer (Waltham, MA, USA) Wallac 1420 VICTOR2 multilabel HTS counter) was used to quantify the signal resulting from the FAM tag using an excitation filter of 490 nm and an emission filter of 535 nm. For each experiment, a no peptide control (cells incubated with ECB only) was performed. To measure the background signal of each peptide, the peptide solutions used in each experiment were analyzed by fluorometry to normalize the fluorescent signal for each sample. Signals were normalized using Equation (1):Normalized Fluorescence = 1000 × (F − C)/(P − B)(1) where F denotes the fluorescent signal of cells incubated with peptide, C denotes the fluorescent signal of cells incubated with no peptide, P denotes the average fluorescent signal of the peptide in suspension, and B denotes the average fluorescent signal of the ECB. Reported data for each experiment is the average of triplicate samples. Statistical analysis was carried out using JMP Pro 16 software (SAS Institute).

Data set [4] concerns HeLa cells. As to the kind of experiment: alamarBlue cell viability assay. It is filed as cell-based. The note with it: 37 °C, 4 h (2 h in method and Figure 2), then alamarBlue 4 h, normalized to no peptide control, triplicate; for effect on cellular viability at 5 µM: HeLa cells, 5 µM peptide; for decrease in cellular viability: HeLa cells, 10, 20, and 30 μM peptide. The method, then: Two days prior to the experiment, HeLa cells were plated at a density of 1 × 10^5 cells/well in a 96 well plate. Cells were washed once with PBS and incubated with peptide solutions for 2 h at 37 °C. Following this incubation period, cells were washed with ECB and incubated with a mixture of 10 μL alamarBlue Viability Reagent (ThermoFisher Scientific, Carlsbad, CA, USA) in 90 μL serum-free media for 4 h at 37 °C. The fluorescent signal of alamarBlue was measured using fluorometry with an excitation filter of 532 nm and an emission filter of […]. A no peptide control was also performed to normalize the fluorescent signals. Signals were normalized using Equation (2):Normalized Cell Viability = F/C(2) where F denotes the fluorescent signal of cells incubated with peptide and C denotes the fluorescent signal of cells incubated with no peptide. The reported data are the average of triplicate samples.

The conditions of data set [5]: cited from earlier work. An excerpt: With the majority of well characterized CPPs being unstructured, and considering the differences in uptake levels, cytotoxicity, and intracellular stability that has been observed when comparing unstructured and structured CPPs, it was important to compare the effects of net cargo charge and length on both unstructured (nona-arginine, R1) and structured (RWRWR, H1) CPPs. To examine the ...

[6] abbreviates: 10 µM peptide, FAM fluorometry of lysate.
Setting [7] is: 10 µM peptide, 60 min, 37 °C, FAM fluorometry of lysate, triplicate (Figure 5).

Where only a bound is given, the exact number is not on record here.

In the case of “FAM-RRRRRRRRR [R1, unstructured nona-arginine CPP, FAM labelled; commercial peptide ARG from AnaSpec, reference compound]”, the “uptake efficiency compared to the RWRWR (H1) CPP” value in the data set on HeLa cells [1] is on record as 2 fold. In addition, in the data set with HeLa cells [2], the “intracellular distribution of fluorescence” value (shortened to “intracellular distribution”) is on record as “punctate regions”.
“FAM-RRRRRRRRR-GRGR [R2, nona-arginine CPP with 4-residue cargo GRGR, net charge +2]”: the “time dependence of uptake (single factor ANOVA)” value (“time dependence of uptake” below) in the data set on HeLa cells [3] is on record as “time-dependent”. For the same substance, the “time-dependent analysis of peptide uptake (in words)” value (from here on “time-dependent analysis”) with HeLa cells [3] (setting [6]) is on record as “greater uptake that the R1 CPP”. Also, in the data set with HeLa cells [3] (setting [7]), the “increase in uptake compared to counterpart with H1 CPP (H2 and H5, respectively)” value was determined as 140%; the “increase in uptake compared to the R1 CPP” value worked out at 29%.
Turning to “RWVRVpGO(FAM)WIRQ-GRGRGRGR [H5, H1 CPP with 8-residue cargo, net charge +4]”, in the data set on HeLa cells [3] (10 µM peptide in ECB, 60 min, 37 °C, trypsinized, lysed in 0.1 M NaOH, FAM fluorometry ex 490/em 535 nm, average of triplicate, compared to H2), the “increase in CPP/cargo uptake on increasing arginine residues from 2 (H2) to 4 (H5)” value was determined as 58%. Further, in the data set on HeLa cells [3], the “time dependence of uptake” value was “demonstrate time dependence”. Moreover, the “time-dependent analysis” value in the data set on HeLa cells [3] (setting [6]) is recorded as “greatest penetration”. Further, in the data set with HeLa cells [2], the “cellular uptake seen by fluorescence microscopy” value (from here on “cellular uptake seen”) is “successful cellular uptake” and the “intracellular distribution” value is listed as “punctate regions of increased fluorescence”. Moreover, in the data set with HeLa cells [2] (10 μM, average fluorescence intensity in individual cells (Figure S6)), the “cell-to-cell heterogeneity of uptake compared to cells incubated with H1” value was “substantially higher heterogeneity”. For the same substance, the “average uptake from single-cell fluorescence intensity compared to H1” value in the data set on HeLa cells [2] (10 μM, line scans across 20 single cells, normalized against background (Figure S6)) was “substantially higher average uptake”. Besides, in the data set on HeLa cells [4], the “effect on cellular viability at 5 µM” value was “did not result in a decrease in cellular viability” and the “decrease in cellular viability” value is listed as ~ 5%.
In the case of “RWVRVpGO(FAM)WIRQ-GEGEGEGE [H7, H1 CPP with 8-residue cargo, net charge −4]”, in the data set on HeLa cells [3], the “time dependence of uptake” value is given as “no time dependence”. Besides, the “uptake of CPP/cargo complex compared to the H1 CPP alone (in words)” value with HeLa cells [3] (60 min, 37 °C) is “diminished uptake”. Also, the “cellular uptake seen” value in the data set with HeLa cells [2] is reported as “impermeability”.
For “RWVRVpGO(FAM)WIRQ-GRGRGGGG [H9, H1 CPP with 8-residue +2 cargo, arginines closer to the N-terminus]”, the “effect of net cargo length and arginine position on cellular uptake (one-way ANOVA)” value (shortened to “effect … (one-way ANOVA)”) with HeLa cells [3] was “no significant difference in cellular uptake”.
In the case of “RWVRVpGO(FAM)WIRQ [H1, RWRWR β-hairpin CPP, FAM on ornithine side chain]”, the “time needed for uptake / sufficient internalization” value in the data set with HeLa cells [1] (HeLa cells) is under 10 min. The “time dependence of uptake” value in the data set on HeLa cells [3] was “demonstrate time dependence”. Besides, in the data set with HeLa cells [3] (setting [6]), the “time-dependent analysis” value was “greatest penetration”. In addition, in the data set with HeLa cells [2], the “cellular uptake seen” value was “successful cellular uptake” and the “intracellular distribution” value is reported as “evenly distributed throughout the cell”. In addition, the “increased intracellular stability compared to nona-arginine CPP” value in data set [5] is recorded as 20 fold. Further, in the data set on HeLa cells [4], the “effect on cellular viability at 5 µM” value is given as “did not result in a decrease in cellular viability” and the “decrease in cellular viability” value was ~ 5%.
For “RWVRVpGO(FAM)WIRQ-GGGG [H3, H1 CPP with 4-residue cargo GGGG, net charge 0]”, the “time dependence of uptake” value with HeLa cells [3] was “no time dependence”. For the same substance, in the data set with HeLa cells [3] (60 min, 37 °C), the “uptake of CPP/cargo complex compared to the H1 CPP alone (in words)” value is “diminished uptake”.
In the case of “FAM-RRRRRRRRR-GRGRGRGR [R3, nona-arginine CPP with 8-residue cargo, net charge +4]”, the “time dependence of uptake” value with HeLa cells [3] is recorded as “time-dependent”. Moreover, the “time-dependent analysis” value in the data set with HeLa cells [3] (setting [6]) is recorded as “greater uptake that the R1 CPP”. For the same substance, in the data set on HeLa cells [3] (setting [7]), the “increase in uptake compared to counterpart with H1 CPP (H2 and H5, respectively)” value is given as 140%; the “increase in uptake compared to the R1 CPP” value is on record as 103%.
For “FAM-RRRRRRRRR-GGGGGGGG [R4, nona-arginine CPP with 8-residue neutral cargo]”, the “decrease in cellular internalization compared to R1 CPP” value in the data set with HeLa cells [3] (setting [7]) came out at 50%.
Regarding “RWVRVpGO(FAM)WIRQ-GGGGGRGR [H8, H1 CPP with 8-residue +2 cargo, arginines closer to the C-terminus]”, the “effect … (one-way ANOVA)” value in the data set with HeLa cells [3] is listed as “no significant difference in cellular uptake”.
Regarding “RWVRVpGO(FAM)WIRQ-GRGR [H2, H1 CPP with 4-residue cargo GRGR, net charge +2]”, in the data set with HeLa cells [3], the “time dependence of uptake” value was “demonstrate time dependence”; the “effect … (one-way ANOVA)” value is “no significant difference in cellular uptake”. Moreover, the “time-dependent analysis” value in the data set on HeLa cells [3] (setting [6]) was “greatest penetration”. Also, in the data set on HeLa cells [4], the “effect on cellular viability at 5 µM” value is reported as “did not result in a decrease in cellular viability” and the “decrease in cellular viability” value is recorded as ~ 5%.
Regarding “RWVRVpGO(FAM)WIRQ-GEGE [H4, H1 CPP with 4-residue cargo GEGE, net charge −2]”, the “time dependence of uptake” value in the data set on HeLa cells [3] was “demonstrate time dependence”. Further, the “uptake of CPP/cargo complex compared to the H1 CPP alone (in words)” value with HeLa cells [3] (60 min, 37 °C) is recorded as “diminished uptake”.
For “RWVRVpGO(FAM)WIRQ-GGGGGGGG [H6, H1 CPP with 8-residue cargo, net charge 0]” the same measures were “demonstrate time dependence” and “diminished uptake”.
